Patent US20140180549A1, “AUTOMATED MACHINE FOR SELECTIVE IN SITU MANIPULATION OF PLANTS” (The Arizona Board of Regents on Behalf of the University of …, priority 2011, published 2014)

Tested on: Lettuce seedlings
Experiment: Comparison of automated (machine-vision spray) and hand plant thinning
Format: in vivo
Conditions: for Time (hand laborer with hand hoe to remove weeds and lettuce plants missed during thinning): after thinning operation; for Time (hand laborer with hand hoe to remove weeds and lettuce plants missed during thinning) / Plant Count (number of live plants per acre after thinning): letters = Duncan's groups (P = 0.05); for Plant Count (number of live plants per acre after thinning) / Plant Spacing (average of the measured distance to each live plant after thinning) / machine performance as compared to hand thinning: lettuce seedlings; for Plant Count (number of live plants per acre after thinning) / Plant Spacing (average of the measured distance to each live plant after thinning): product sprayed by automated thinning machine; for Plant Spacing (average of the measured distance to each live plant after thinning): letters = Duncan's new multiple range test groups (P = 0.05); for machine performance as compared to hand thinning: liquid product sprayed by automated thinning machine
Source text: The machine vision system used in this example is as described in Example 1, except the spray nozzles were enclosed within a “hooded” box assembly to protect sprayed treatment from wind effects.
Lettuce seedlings were thinned either using the machine vision system with the indicated treatments. The far left column lists the seven treatments tested, including hand thinning (control) and six treatments used by the automated thinning machine. Of these six, the automated thinning machine was evaluated spraying five different liquid products (two acids, two fertilizers, and one herbicide) known to kill plants and one mechanical method (knife blade—“hula hoe” design). The second column is the cost of the material sprayed for the flow rates and travel speeds used. The third column is the average of the measured distance to each live plant after thinning. The fourth column is the number of live plants per acre after thinning. The fifth column is the time required by a hand laborer to walk through the field with a hand hoe and remove weeds in the row between crop plants and any lettuce plants missed during the thinning operation.

| SMILES | Time (hand laborer with hand hoe to remove weeds and lettuce plants missed during thinning) | Plant Count (number of live plants per acre after thinning) | Plant Spacing (average of the measured distance to each live plant after thinning) | machine performance as compared to hand thinning |
| --- | --- | --- | --- | --- |
| CC(=O)O [Acetic Acid (20%), Acetic Acid] | 3.0cd hr/acre | 30,181b per/acre | 8.9b inch |  |
| C[n+]1ccc(-c2cc[n+](C)cc2)cc1 [Paraquat, reference compound] | 2.8d hr/acre | 27,692b per/acre | 9.6ab inch | no difference |
| O=S(=O)(O)O [Sulfuric Acid (10%), Sulfuric Acid] | 2.7d hr/acre | 26,758b per/acre | 10.2a inch | no difference |
